{"source": "patent US12529162B2", "about": "“Method of screening for peptides capable of binding to a ubiquitin protein ligase (E3)” (Phoremost Limited, priority 2019, dated 2026)", "key": {"TNKS2 (residues 20-800)": {"biological_target": "TNKS2 (residues 20-800) (Homo sapiens, UniProt Q9H2K2)", "details": "read-out: affinity of binding to TNKS2; fluorescence polarization; Guettler et al., 2011; cited from earlier work"}, "TNKS2": {"biological_target": "T1, TNKS2 (Homo sapiens, UniProt Q9H2K2)", "T1 construct": "endogenous in cells; host or cells: HEK293A", "T1 sequence (Q9H2K2 1-1166)": "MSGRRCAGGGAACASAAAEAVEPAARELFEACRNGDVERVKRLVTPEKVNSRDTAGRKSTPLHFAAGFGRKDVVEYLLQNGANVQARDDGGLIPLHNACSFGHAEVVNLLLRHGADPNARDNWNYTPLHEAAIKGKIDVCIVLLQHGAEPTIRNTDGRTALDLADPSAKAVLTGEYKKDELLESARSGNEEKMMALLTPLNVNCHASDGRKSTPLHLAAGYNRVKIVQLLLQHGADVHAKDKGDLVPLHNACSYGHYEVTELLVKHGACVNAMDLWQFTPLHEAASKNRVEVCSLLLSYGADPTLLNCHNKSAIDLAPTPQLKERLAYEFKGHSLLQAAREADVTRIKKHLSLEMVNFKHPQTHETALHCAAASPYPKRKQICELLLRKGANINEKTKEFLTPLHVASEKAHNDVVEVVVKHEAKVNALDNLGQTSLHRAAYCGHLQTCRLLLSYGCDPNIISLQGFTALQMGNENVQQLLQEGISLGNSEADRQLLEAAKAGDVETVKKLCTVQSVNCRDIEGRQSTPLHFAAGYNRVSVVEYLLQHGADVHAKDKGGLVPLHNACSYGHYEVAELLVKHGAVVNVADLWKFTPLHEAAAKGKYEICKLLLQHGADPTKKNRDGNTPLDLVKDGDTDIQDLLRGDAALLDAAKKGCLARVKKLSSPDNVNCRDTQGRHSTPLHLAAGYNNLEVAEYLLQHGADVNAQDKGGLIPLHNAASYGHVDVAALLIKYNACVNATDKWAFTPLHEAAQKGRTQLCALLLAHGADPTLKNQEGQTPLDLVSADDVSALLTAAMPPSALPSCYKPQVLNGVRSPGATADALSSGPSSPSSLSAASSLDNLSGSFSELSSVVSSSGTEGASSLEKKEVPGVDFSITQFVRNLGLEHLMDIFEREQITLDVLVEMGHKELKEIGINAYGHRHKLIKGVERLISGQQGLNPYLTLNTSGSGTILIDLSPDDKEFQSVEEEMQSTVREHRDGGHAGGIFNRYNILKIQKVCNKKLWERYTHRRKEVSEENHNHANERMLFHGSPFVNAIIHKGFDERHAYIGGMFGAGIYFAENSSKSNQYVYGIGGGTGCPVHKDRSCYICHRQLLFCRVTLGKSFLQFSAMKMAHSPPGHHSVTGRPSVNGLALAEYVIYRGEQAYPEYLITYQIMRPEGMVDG", "test": "Western blot of TNKS2 levels in HEK293A cells transfected with PROTAC-encoding plasmids", "format": "cell-based", "details": "20 hours after transfection, actin loading control", "source_text": "A DNA construct encoding for the TNKS2 binding sequence (3BP2^410-425) at the N-terminus as set out in SEQ ID NO: 1, a GGGGSS linker as set out in SEQ ID NO: 3, and the E3 binding sequence (ALAPYIP) as set out in SEQ ID NO: 2, at the C-terminus was cloned into pMOST25 vector (the full PROTAC as set out in SEQ ID NO: 4). pMOST25 is a lentiviral vector based on pCDH EF1a (System Biosciences) where the promoter was swapped for CMV and the MCS replaced by a new cassette with flanking NGS primer sites. Control constructs which (i) lacked the ALAPYIP E3 binding sequence (3BP2^410-425) as set out in SEQ ID NO: 5 or (ii) contained a double mutation which is known to disrupt HIF1α-VHL interaction (3BP2^410-425-ALAAAIP) as set out in SEQ ID NO: 6 were similarly cloned (Table 1). Neither control construct can bind to the E3 ligase and therefore there should be no change in the level of TNKS2 when cells are transduced with these. HEK293A cells were collected 20 hours after transfection, and levels of TNKS2 target protein were assessed by Western Blot (FIG. 2). Membranes were probed with primary antibodies against TNKS2 (Abcam ab155545), or actin (Abcam ab179467) as a loading control. […]\n20 hours after transfection, cells were harvested and analyzed by Western Blotting. […]"}, "GFP [1]": {"tested_on": "GFP", "details": "HEK293A", "procedure": "GFP was used as the target (test protein) in this study.\nGFP-peptide expressing cells were either untreated (DMSO treatment only; ‘Peptide+vehicle’) or treated with the proteasome inhibitor MG132 (10 μM in DMSO, for 4 h) (‘Peptide+MG132’), and were then analyzed by FACS for GFP levels (FIG. 8)."}, "GFP [2]": {"tested_on": "GFP", "details": "HEK293A", "procedure": "Plasmids encoding for GFP alone (control), or GFP tagged with one of the validated candidate peptide hits from the screening method, Hit (#1) (see Example 5) or Hit (#2), were transduced into HEK293A cells using lentivirus. Cells expressing tagged GFP were either untreated (DMSO treatment only) or treated with the proteasome inhibitor MG132 for 4 hours, after which they were harvested and analyzed by Western Blotting. Membranes were probed with primary antibodies against GFP (CST #2555), or actin (Abcam ab179467) as a loading control. After the addition of HRP-conjugated secondary antibodies, protein signals were detected by chemiluminescence (FIG. 9).", "remark": "listed apart in the source"}}, "note": "Entries after “also recorded” stand apart in the source; their conditions may differ. Like-named read-outs stand apart in the source and are kept apart here."}
{"sequence": "LPHLQRSPPDGQSFRS", "values": [{"measurement": "Kd", "setting": "TNKS2 (residues 20-800)", "value": 500, "unit": "nM"}]}
{"sequence": "MGLPHLQRSPPDGQSFRSLEGGGGSSAALAPYIP (3BP2(410-425)- ALAPYIP peptide) [3BP2^410-425-ALAPYIP]", "values": [{"measurement": "levels of TNKS2 by Western blot", "setting": "TNKS2", "value": "led to TNKS2 degradation; also recorded: markedly decreased levels of TNKS2"}]}
{"sequence": "MGLPHLQRSPPDGQSFRSLEGGGGSSLDPETGEYL (3BP2(410-425) - LDPETGEYL peptide) [3BP2^410-425-LDPETGEYL]", "values": [{"measurement": "levels of TNKS2 by Western blot", "setting": "TNKS2", "value": "unaffected"}]}
{"sequence": "MQNNPLTSGLEPSPPQCDYIRPSLTGKFAGNPWYYGKVTRHQAEMA [Hit (#1)]", "values": [{"measurement": "GFP levels by FACS compared to no peptide control", "setting": "GFP [1]; Peptide+MG132 (10 μM, 4 h)", "value": "restored GFP levels back to that of the ‘no peptide control’ cells"}, {"measurement": "GFP levels by FACS compared to no peptide control", "setting": "GFP [1]; Peptide+vehicle (DMSO only)", "value": "marked degradation of GFP"}, {"measurement": "GFP levels by Western blot", "setting": "GFP [2]; MG132 treated 4 hours", "value": "GFP levels were restored"}, {"measurement": "GFP levels by Western blot compared to GFP control", "setting": "GFP [2]; absence of MG132", "value": "almost complete depletion of GFP"}]}
